Results on 45 molecules are retold here after ChEMBL document CHEMBL5131532, “Synthesis and Evaluation of Small Molecule Disruptors of the Aha1/Hsp90 Complex for the Reduction of Tau Aggregation” (ACS Med Chem Lett, 2022).

SMILES strings stand for the structures. The source made the active and inactive calls. The rule behind the calls is not given here. Some results are limits rather than exact numbers.

Test system in the first assay: not listed separately
In words: Disruption of recombinant GST-tagged human Aha1/His6-tagged full length human Hsp90alpha protein-protein interaction expressed in Escherichia coli incubated for 4 hrs by AlphaLisa assay. For orientation: In Alpha technology, singlet oxygen from a donor bead excites a nearby acceptor bead.
In general, IC50 refers to the concentration needed to halve the response being measured. In the case of `COc1cccc(-c2cc(C(=O)Nc3ccc(C(F)(F)F)cc3)ccc2OC)c1`, the half-inhibitory concentration (IC50) was found to be 4.83 µM.
Still for that read-out and setting: the figure for `COc1ccc(C(=O)Nc2ccc(C(F)(F)F)cc2)cc1-c1cccc(OC)c1OC` is over 10 µM.
The same measure, in the same setting: the figure for `COc1ccccc1-c1cc(C(=O)Nc2ccc(C(F)(F)F)cc2)ccc1OC` is 9.65 µM; for `COc1cccc(-c2cc(C(=O)Nc3cccc([N+](=O)[O-])c3)ccc2OC)c1` it is over 10 µM.
On to `COc1cccc(-c2cc(C(=O)Nc3ccc(O)cc3)ccc2OC)c1`, for which the IC50 is over 10 µM.
Still for that read-out and setting: the figure for `COc1cccc(-c2cc(-c3nnnn3-c3ccc(C(F)(F)F)cc3)ccc2OC)c1` is 3.32 µM; for `COc1ccc(C(=O)Nc2ccc(C(F)(F)F)cc2)c(-c2ccccc2OC)c1` it is over 10 µM.
On the same count and under the same terms, the figure for `COc1ccc(C(=O)Nc2ccc(C(F)(F)F)cc2)cc1-c1ccc(Cl)c(Cl)c1` is over 10 µM; for `COc1ccc(NC(=O)c2ccc(OC)c(-c3cccc(OC)c3)c2)cc1` it is over 10 µM.
As for `COc1ccc(C(=O)Nc2ccc(C(F)(F)F)cc2)cc1-c1cccc(O)c1`, the IC50 is over 10 µM.
In the case of `COc1ccc(C(=O)Nc2ccc(C(F)(F)F)cc2)cc1-c1cccc(Cl)c1`, the 50% inhibitory concentration (IC50) was over 10 µM.
Same read-out and setting: the figure for `COc1ccc(C(=O)Nc2ccc(C(F)(F)F)cc2)c(-c2ccc(Cl)c(C(F)(F)F)c2)c1` is over 10 µM; for `COc1cccc(-c2cc(C(=O)Nc3cccc(Cl)c3Cl)ccc2OC)c1` it is over 10 µM.
Regarding `COC(=O)c1ccc(NC(=O)c2ccc(OC)c(-c3cccc(OC)c3)c2)cc1`, the IC50 is over 10 µM.
As for `COc1ccc(C(=O)Nc2ccc(C(F)(F)F)cc2)cc1-c1cccc(F)c1`, the IC50 was over 10 µM.
The same measure, in the same setting: next, `COc1cc(NC(=O)c2ccc(OC)c(-c3cccc(OC)c3)c2)cc(OC)c1`: over 10 µM.
Still for that read-out and setting: next, `COc1ccc(C(=O)Nc2ccc(C(F)(F)F)cc2)cc1-c1ccc(Cl)cc1`: over 10 µM.
For the molecule `COc1ccc(C(=O)Nc2ccc(C(F)(F)F)cc2)cc1-c1ccccc1`, the IC50 is over 10 µM.
Turning to `COc1cccc(-c2cc(C(=O)Nc3ccc(OC)cc3OC)ccc2OC)c1`, the half-maximal inhibitory concentration (IC50) was found to be 9.53 µM.
As to `COc1cccc(-c2cc(C(=O)Nc3cccc(Cl)c3)ccc2OC)c1`, the concentration for half-maximal inhibition (IC50) is over 10 µM.
Same read-out and setting: the figure for `COc1cccc(-c2cc(C(=O)Nc3ccc(Cl)cc3)ccc2OC)c1` is 6.03 µM.
Turning to `COc1ccc(C(=O)Nc2ccc(C(F)(F)F)cc2)cc1-c1cccc(N)c1`, the 50% inhibitory concentration (IC50) was 7.23 µM.
Still for that read-out and setting: next, `COc1cccc(-c2cc(C(=O)Nc3ccccc3)ccc2OC)c1`: over 10 µM; `COC(=O)c1cccc(NC(=O)c2ccc(OC)c(-c3cccc(OC)c3)c2)c1`: over 10 µM.
Consider `COc1cccc(-c2cc(C(=O)Nc3ccccc3Cl)ccc2OC)c1`, for which the half-inhibitory concentration (IC50) is over 10 µM.
Still for that read-out and setting: next, `COc1ccc(-c2cc(OC)ccc2C(=O)Nc2ccc(C(F)(F)F)cc2)cc1`: over 10 µM.
The same measure, in the same setting: the figure for `COc1ccc(-c2cc(C(=O)Nc3ccc(C(F)(F)F)cc3)ccc2OC)cc1` is over 10 µM; for `COc1cccc(-c2cc(OC)ccc2C(=O)Nc2ccc(C(F)(F)F)cc2)c1` it is over 10 µM; for `COc1cccc(-c2cc(C(=O)Nc3ccc(Cl)cc3Cl)ccc2OC)c1` it is over 10 µM.
On to `COc1cccc(-c2cc(C(=O)Nc3ccc([N+](=O)[O-])cc3)ccc2OC)c1`, for which the half-inhibitory concentration (IC50) was 4.04 µM.
Same read-out and setting: the figure for `COc1ccc(C(=O)Nc2ccc(C(F)(F)F)cc2)c(-c2ccc(Cl)c(Cl)c2)c1` is over 10 µM; for `COc1cccc(-c2cc(C(=O)Nc3ccc(C#N)cc3)ccc2OC)c1` it is 8.57 µM.
Turning to `COc1ccc(C(=O)Nc2ccc(C(F)(F)F)cc2)cc1-c1cccc(C(F)(F)F)c1`, the half-maximal inhibitory concentration (IC50) is over 10 µM.
As for `COc1ccc(C(=O)Nc2ccc(C(F)(F)F)cc2)c(-c2cccc(O)c2)c1`, the 50% inhibitory concentration (IC50) is over 10 µM.
On the same count and under the same terms, next, `COc1ccc(C(=O)Nc2ccc(C(F)(F)F)cc2)c(-c2ccc(O)cc2)c1`: over 10 µM; `COc1ccc(C(=O)Nc2ccc(C(F)(F)F)cc2)cc1-c1ccc(C(F)(F)F)cc1`: over 10 µM; `COc1ccc(C(=O)Nc2ccc(C(F)(F)F)cc2)cc1-c1c(OC)cccc1OC`: 9.05 µM.
As to `COc1ccc(C(=O)Nc2ccc(C(F)(F)F)cc2)cc1-c1ccc(Cl)c(C(F)(F)F)c1`, the half-maximal inhibitory concentration (IC50) was over 10 µM.
Same read-out and setting: the figure for `COc1ccc(C(=O)Nc2ccc(C(F)(F)F)cc2)c(-c2ccccc2)c1` is over 10 µM; for `COc1ccc(C(=O)Nc2ccc(C(F)(F)F)cc2)cc1-c1ccccc1O` it is over 10 µM; for `COc1cccc(-c2cc(C(=O)Nc3ccc(F)cc3)ccc2OC)c1` it is 6.32 µM.
Still for that read-out and setting: the figure for `COc1ccc(C(=O)Nc2ccc(C(F)(F)F)cc2)cc1-c1ccc(O)cc1` is 6.39 µM; for `COc1ccc(C(=O)Nc2ccc(C(F)(F)F)cc2)cc1-c1cccc(N(C)C)c1` it is 3.36 µM; for `COc1ccc(C(=O)Nc2ccc(C(F)(F)F)cc2)c(-c2ccc(Cl)cc2)c1` it is over 10 µM.
On to `COc1ccc(C(=O)Nc2ccc(C(F)(F)F)cc2)cc1-c1cccc(CO)c1`, for which the half-maximal inhibitory concentration (IC50) was over 10 µM.

For another assay, the species on record is Homo sapiens. In words: Disruption of recombinant human Aha1/Hsp90 alpha protein-protein interaction expressed in Escherichia coli […] assessed as inhibition of recombinant human P301L tau aggregation incubated for 30 mins by ThT fluorescence assay.
Take `COc1cccc(-c2cc(-c3nnnn3-c3ccc(C(F)(F)F)cc3)ccc2OC)c1`: the result was Active.
The same measure, in the same setting: the entry for `COc1ccc(C(=O)Nc2ccc(C(F)(F)F)cc2)cc1-c1cccc(N(C)C)c1` is “Active”.

The test system of a further assay is SH-SY5Y. In words: Disruption of Aha1/Hsp90 alpha protein-protein interaction in human SH-SY5Y cells lysate at 10 uM incubated for 24 hrs by co-immunoprecipitation assay. In kind it is subcellular.
On to `COc1cccc(-c2cc(C(=O)Nc3ccc(C(F)(F)F)cc3)ccc2OC)c1`, for which the outcome was Active.
As to `COc1cccc(-c2cc(-c3nnnn3-c3ccc(C(F)(F)F)cc3)ccc2OC)c1`, the outcome was Active.
Regarding `COc1ccc(C(=O)Nc2ccc(C(F)(F)F)cc2)cc1-c1cccc(N(C)C)c1`, the outcome was Active.

Another assay relates to SK-BR-3. Nature of the assay: Disruption of Aha1/Hsp90 protein-protein interaction in human SK-BR-3 cells lysate at 10 uM incubated for 24 hrs by co-immunoprecipitation assay. The format is subcellular.
As to `COc1cccc(-c2cc(C(=O)Nc3ccc(C(F)(F)F)cc3)ccc2OC)c1`, the result was Active.
On the same count and under the same terms, next, `COc1cccc(-c2cc(-c3nnnn3-c3ccc(C(F)(F)F)cc3)ccc2OC)c1`: “Active”.
As to `COc1ccc(C(=O)Nc2ccc(C(F)(F)F)cc2)cc1-c1cccc(N(C)C)c1`, the result was Active.
